Measured values published in PubChem BioAssay AID2202555 (NIEHS Division of Translational Toxicology (DTT)).
Records with an inconclusive call do not appear. The source made the active and inactive calls. The rule behind the calls is not given here.

system: rat and mouse 2-year carcinogenicity bioassay, tumor evidence; assay: Consolidated carcinogenicity assay summary data; conditions: Route (rodents): Dosed feed

Question: How did the carcinogen call turn out when `O=P(OCC(Br)CBr)(OCC(Br)CBr)OCC(Br)CBr` (centres undefined) was run?
Answer: active; clear evidence

Question: For `O=NN(c1ccccc1)c1ccccc1`, which carcinogen call is on record?
Answer: active; clear evidence

Question: For `O=C(O)c1ccc([N+](=O)[O-])cc1`, which carcinogen call is on record?
Answer: active; no evidence

Question: For `COc1ccc(N)cc1N`, which carcinogen call is on record?
Answer: active; clear evidence

Question: How did the carcinogen call turn out when `CCCC[C@@H](C)[C@@H](OC(=O)C[C@@H](CC(=O)O)C(=O)O)[C@H](C[C@@H](C)C[C@H](O)CCCC[C@@H](O)C[C@H](O)[C@H](C)N)OC(=O)C[C@@H](CC(=O)O)C(=O)O` was run?
Answer: active; clear evidence

Question: How did the carcinogen call turn out when `Nc1ccc(Cl)cc1N` was run?
Answer: active; clear evidence

Question: Which carcinogen call does the source give for `COc1ccccc1N` here?
Answer: active; clear evidence

Question: For `Cc1cccc(C)c1N`, which carcinogen call is on record?
Answer: active; clear evidence

Question: `Nc1ccc(O)c([N+](=O)[O-])c1` was tested. Which carcinogen call did it give?
Answer: active; clear evidence

Question: Which carcinogen call does the source give for `O=[N+]([O-])c1ccc2c3c(cccc13)CC2` here?
Answer: active; clear evidence

Question: For `CCCN(CCC)c1c([N+](=O)[O-])cc(C(F)(F)F)cc1[N+](=O)[O-]`, which carcinogen call is on record?
Answer: active; no evidence

Question: `Nc1ccccc1C(=O)OCC=Cc1ccccc1` was tested. Which carcinogen call did it give?
Answer: active; clear evidence

Question: Which carcinogen call does the source give for `c1ccc(NNc2ccccc2)cc1` here?
Answer: active; clear evidence

Question: For `ClC1(Cl)C2(Cl)C3(Cl)C4(Cl)C(Cl)(Cl)C5(Cl)C3(Cl)C1(Cl)C5(Cl)C24Cl` (centres undefined), which carcinogen call is on record?
Answer: active; clear evidence

Question: Which carcinogen call does the source give for `CN(C)C(=O)Nc1ccc(Cl)cc1` here?
Answer: active; clear evidence

Question: `Nc1nc(N)c2nc(-c3ccccc3)c(N)nc2n1` was tested. Which carcinogen call did it give?
Answer: active; equivocal evidence

Question: For `Nc1ccc2c(c1)C(=O)c1ccccc1C2=O`, which carcinogen call is on record?
Answer: active; clear evidence

Question: How did the carcinogen call turn out when `N=C1C=CC(=C(c2ccc(N)cc2)c2ccc(N)cc2)C=C1` was run?
Answer: active; clear evidence

Question: With `Nc1ncc([N+](=O)[O-])s1` as the compound, how does the carcinogen call read?
Answer: active; clear evidence

Question: Which carcinogen call does the source give for `c1ccc(N=Nc2ccccc2)cc1` here?
Answer: active; clear evidence

Question: For `C[C@H]1CCCC(=O)CCC/C=C/c2cc(O)cc(O)c2C(=O)O1`, which carcinogen call is on record?
Answer: active; no evidence

same assay, conditions: Route (rodents): Dosed water

Question: `CCOC(N)=O` was tested. Which carcinogen call did it give?
Answer: active

Question: `O=C(O)C(Br)Br` was tested. Which carcinogen call did it give?
Answer: active; some evidence

Question: `Cc1ccc(S(=O)(=O)Oc2ccc(N=Nc3ccc(-c4ccc(N=Nc5c(O)ccc6cc(S(=O)(=O)O)cc(S(=O)(=O)O)c56)c(C)c4)cc3C)cc2)cc1` was tested. Which carcinogen call did it give?
Answer: active; clear evidence

same assay, conditions: Route (rodents): Gavage

Question: For `Clc1ccc(Cl)cc1`, which carcinogen call is on record?
Answer: active; clear evidence

Question: `OCc1c[nH]c2ccccc12` was tested. Which carcinogen call did it give?
Answer: active; no evidence

Question: How did the carcinogen call turn out when `C[C@@H]1Cc2c(Cl)cc(C(=O)N[C@@H](Cc3ccccc3)C(=O)O)c(O)c2C(=O)O1` was run?
Answer: active; clear evidence

Question: How did the carcinogen call turn out when `ClCC(Cl)Cl` was run?
Answer: active; no evidence

Question: `NC=O` was tested. Which carcinogen call did it give?
Answer: active; no evidence

Question: With `Nc1ccc([N+](=O)[O-])cc1O` as the compound, how does the carcinogen call read?
Answer: active; some evidence

Question: How did the carcinogen call turn out when `O=Cc1ccccc1` was run?
Answer: active; no evidence

Question: With `Oc1ccc(Cl)cc1Cc1ccccc1` as the compound, how does the carcinogen call read?
Answer: active; no evidence

Question: For `ClC(Cl)(Cl)C(Cl)(Cl)Cl`, which carcinogen call is on record?
Answer: active; clear evidence

Question: `CC(C)=C1CC[C@@H](C)CC1=O` was tested. Which carcinogen call did it give?
Answer: active; no evidence

Question: For `CC1C(=O)C[C@]2(C(C)C)C[C@H]12` (some centres undefined), which carcinogen call is on record?
Answer: active; some evidence

Question: For `C=C(C)[C@H]1CC=C(C)CC1`, which carcinogen call is on record?
Answer: active; clear evidence

Question: How did the carcinogen call turn out when `Cc1ccc(N(C)C)cc1` was run?
Answer: active; clear evidence

Question: With `CC(C)(c1cc(Br)c(O)c(Br)c1)c1cc(Br)c(O)c(Br)c1` as the compound, how does the carcinogen call read?
Answer: active; equivocal evidence

Question: For `CC(O)c1ccccc1` (centres undefined), which carcinogen call is on record?
Answer: active; some evidence

Question: With `C[C@]12CC[C@@H]3c4ccc(OC(=O)Cc5ccc(N(CCCl)CCCl)cc5)cc4CC[C@H]3[C@@H]1CC[C@@H]2OC(=O)Cc1ccc(N(CCCl)CCCl)cc1` as the compound, how does the carcinogen call read?
Answer: active; no evidence

same assay, conditions: Route (rodents): Inhalation

Question: How did the carcinogen call turn out when `C=CC=C` was run?
Answer: active

Question: Which carcinogen call does the source give for `CC(C)CON=O` here?
Answer: active; clear evidence

Question: Which carcinogen call does the source give for `[Co]` here?
Answer: active; clear evidence

Question: `CC1CO1` (centres undefined) was tested. Which carcinogen call did it give?
Answer: active; some evidence

Question: With `CCC1CO1` (centres undefined) as the compound, how does the carcinogen call read?
Answer: active; clear evidence

Question: With `ClC(Cl)=C(Cl)Cl` as the compound, how does the carcinogen call read?
Answer: active; clear evidence

same assay, conditions: Route (rodents): Inhalation; Second Route: Gavage

Question: For `ClCC(Br)CBr` (centres undefined), which carcinogen call is on record?
Answer: active; clear evidence

same assay, conditions: Route (rodents): Interperitoneal

Question: Which carcinogen call does the source give for `Nc1nc(=S)c2ncn([C@H]3C[C@H](O)[C@@H](CO)O3)c2[nH]1` here?
Answer: active; equivocal evidence

Question: `CNNCc1ccc(C(=O)NC(C)C)cc1` was tested. Which carcinogen call did it give?
Answer: active; clear evidence
